Results on 1 compound are retold here after BindingDB's records for patent US20250223301 (Inventisbio Co., 2025).

Structures are written as SMILES.

For experiment [1], the target named is Diacylglycerol kinase zeta (Homo sapiens, UniProt Q13574). In words: DGK ADP-Glo Kinase Assay. The procedure: (§1) Luminescence was recorded using an Tecan SPARK microplate reader.
A general note: In ADP-Glo the light output rises with the ADP produced.

Experiment [2] has as its target Diacylglycerol kinase alpha (Homo sapiens, UniProt P23743). In words: DGK ADP-Glo Kinase Assay. The procedure:
as §1

Sequence of Diacylglycerol kinase zeta (Q13574 as listed by the source): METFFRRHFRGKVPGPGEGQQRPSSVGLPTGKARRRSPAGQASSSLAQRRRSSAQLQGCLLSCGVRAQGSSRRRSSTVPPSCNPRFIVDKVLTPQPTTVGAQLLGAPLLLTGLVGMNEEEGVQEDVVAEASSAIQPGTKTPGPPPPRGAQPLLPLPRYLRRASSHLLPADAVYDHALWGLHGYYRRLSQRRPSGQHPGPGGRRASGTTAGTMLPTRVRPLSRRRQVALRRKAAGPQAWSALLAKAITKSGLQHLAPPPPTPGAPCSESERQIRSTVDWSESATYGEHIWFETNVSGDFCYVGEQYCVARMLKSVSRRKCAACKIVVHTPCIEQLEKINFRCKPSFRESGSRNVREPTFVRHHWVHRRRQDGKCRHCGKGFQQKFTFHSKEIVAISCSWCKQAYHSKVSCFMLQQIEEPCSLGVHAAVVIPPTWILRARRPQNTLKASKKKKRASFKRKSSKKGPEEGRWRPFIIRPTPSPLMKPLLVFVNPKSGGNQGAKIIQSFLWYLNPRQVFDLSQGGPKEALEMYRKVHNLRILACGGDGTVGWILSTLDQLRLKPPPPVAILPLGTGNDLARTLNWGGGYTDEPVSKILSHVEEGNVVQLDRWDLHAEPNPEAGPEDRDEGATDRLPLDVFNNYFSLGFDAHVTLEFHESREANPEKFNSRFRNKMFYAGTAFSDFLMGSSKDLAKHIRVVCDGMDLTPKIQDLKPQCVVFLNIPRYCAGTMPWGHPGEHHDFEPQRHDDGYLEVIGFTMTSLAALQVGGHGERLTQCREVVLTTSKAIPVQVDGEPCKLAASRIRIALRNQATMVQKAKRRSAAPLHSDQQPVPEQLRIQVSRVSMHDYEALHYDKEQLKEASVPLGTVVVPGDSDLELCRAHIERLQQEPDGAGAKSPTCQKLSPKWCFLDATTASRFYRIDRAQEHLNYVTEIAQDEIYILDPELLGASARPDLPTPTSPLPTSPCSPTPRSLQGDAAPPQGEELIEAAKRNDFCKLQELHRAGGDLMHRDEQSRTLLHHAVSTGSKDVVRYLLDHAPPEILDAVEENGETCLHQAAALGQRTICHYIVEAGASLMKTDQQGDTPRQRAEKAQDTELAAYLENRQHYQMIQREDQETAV
Sequence of Diacylglycerol kinase alpha (P23743 whole entry): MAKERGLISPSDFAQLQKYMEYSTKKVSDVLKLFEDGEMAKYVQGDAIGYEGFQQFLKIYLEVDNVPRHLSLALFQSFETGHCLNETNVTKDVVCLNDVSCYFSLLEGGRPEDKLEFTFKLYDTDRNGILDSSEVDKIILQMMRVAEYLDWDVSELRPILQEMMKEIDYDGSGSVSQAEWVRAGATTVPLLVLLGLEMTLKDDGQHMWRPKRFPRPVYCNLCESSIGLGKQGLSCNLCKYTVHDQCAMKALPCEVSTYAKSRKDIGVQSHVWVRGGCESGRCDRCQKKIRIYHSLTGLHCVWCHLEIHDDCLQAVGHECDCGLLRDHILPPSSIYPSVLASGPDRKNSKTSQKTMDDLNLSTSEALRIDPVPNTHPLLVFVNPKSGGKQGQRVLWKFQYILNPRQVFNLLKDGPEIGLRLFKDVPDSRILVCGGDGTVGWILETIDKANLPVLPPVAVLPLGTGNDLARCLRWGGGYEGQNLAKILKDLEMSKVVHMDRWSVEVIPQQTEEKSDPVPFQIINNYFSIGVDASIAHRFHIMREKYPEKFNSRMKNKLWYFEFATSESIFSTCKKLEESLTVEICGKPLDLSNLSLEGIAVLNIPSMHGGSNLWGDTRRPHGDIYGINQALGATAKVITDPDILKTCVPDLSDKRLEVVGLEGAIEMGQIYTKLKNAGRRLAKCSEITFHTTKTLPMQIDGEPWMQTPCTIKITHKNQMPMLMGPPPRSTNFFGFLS

A word on the IC50: it is the concentration that inhibits the measured activity by half. Read a high IC50 as lower potency. With `CCC(c1cccc(S(F)(F)(F)(F)F)c1)N1C[C@H](CC)N(c2nc(=O)n(C)c3ccc(C#N)nc23)C[C@H]1CC` (single isomer, unassigned) [US20250223301, Compound 55], the IC50 in experiment [1] was 12 nM; in experiment [2], 76 nM.
